In the NIST ThermoML archive (doi:10.1016/j.fluid.2013.12.022):

Assay: refractive index (other wavelength) (dimensionless); xn = mol fraction of the nth substance listed
Settings: 85 kPa, Liquid, Wavelength=632.8 nm, minimum deviation angle technique

CCCCCCCC[n+]1ccn(C)c1.F[P-](F)(F)(F)(F)F [1-octyl-3-methylimidazolium hexafluorophosphate] + CCCO
Settings	refractive index
298.19 K, x1 = 1	1.4215
300.2 K, x1 = 1	1.421
302.19 K, x1 = 1	1.4204
304.2 K, x1 = 1	1.4199
305.17 K, x1 = 0.3	1.4047
305.17 K, x1 = 0.5	1.4114
305.21 K, x1 = 0.6	1.4137
305.22 K, x1 = 0.801	1.4171
305.23 K, x1 = 0.698	1.4154
305.26 K, x1 = 0.899	1.4184
305.27 K, x1 = 0.399	1.4084
306.18 K, x1 = 0.6	1.4134
306.19 K, x1 = 0.5	1.4111
306.2 K, x1 = 0.3	1.4044
306.2 K, x1 = 0.399	1.4081
306.2 K, x1 = 0.801	1.4168
306.22 K, x1 = 1	1.4193
306.23 K, x1 = 0.698	1.4151
306.25 K, x1 = 0.899	1.4181
307.19 K, x1 = 0.3	1.404
307.19 K, x1 = 0.801	1.4165
307.21 K, x1 = 0.399	1.4078
307.21 K, x1 = 0.6	1.4131
307.24 K, x1 = 0.698	1.4148
307.24 K, x1 = 0.899	1.4178
307.29 K, x1 = 0.2	1.3986
307.35 K, x1 = 0.5	1.4108
308.19 K, x1 = 0.5	1.4105
308.2 K, x1 = 0.3	1.4037
308.21 K, x1 = 0.801	1.4162
308.23 K, x1 = 0.899	1.4175
308.24 K, x1 = 0.698	1.4146
308.24 K, x1 = 1	1.4188
308.25 K, x1 = 0.399	1.4075
308.26 K, x1 = 0.2	1.3983
308.27 K, x1 = 0.6	1.4128
308.32 K, x1 = 0.1	1.3904
309.18 K, x1 = 0.399	1.4072
309.19 K, x1 = 0.3	1.4034
309.19 K, x1 = 0.5	1.4102
309.21 K, x1 = 0.6	1.4125
309.21 K, x1 = 0.899	1.4173
309.22 K, x1 = 0.698	1.4143
309.23 K, x1 = 0.1	1.3901
309.23 K, x1 = 0.801	1.416
309.28 K, x1 = 0.2	1.3979
310.11 K, x1 = 0.3	1.4031
310.19 K, x1 = 0.6	1.4122
310.2 K, x1 = 0.5	1.4099
310.21 K, x1 = 0.899	1.417
310.23 K, x1 = 0.1	1.3897
310.23 K, x1 = 0.698	1.414
310.25 K, x1 = 0.801	1.4157
310.25 K, x1 = 1	1.4183
310.26 K, x1 = 0.2	1.3976
310.29 K, x1 = 0.399	1.4069
311.2 K, x1 = 0.6	1.4119
311.2 K, x1 = 0.801	1.4154
311.2 K, x1 = 0.899	1.4167
311.21 K, x1 = 0.3	1.4027
311.21 K, x1 = 0.399	1.4066
311.22 K, x1 = 0.5	1.4096
311.24 K, x1 = 0.1	1.3893
311.25 K, x1 = 0.2	1.3973
311.25 K, x1 = 0.698	1.4138
312.17 K, x1 = 0.3	1.4024
312.17 K, x1 = 0.399	1.4063
312.19 K, x1 = 0.6	1.4116
312.19 K, x1 = 0.698	1.4135
312.2 K, x1 = 0.2	1.397
312.2 K, x1 = 0.5	1.4093
312.2 K, x1 = 0.801	1.4151
312.2 K, x1 = 0.899	1.4164
312.24 K, x1 = 1	1.4178
312.26 K, x1 = 0.1	1.3889
313.24 K, x1 = 0.1	1.3886
313.24 K, x1 = 0.2	1.3966

CC(C)(C)O [2-methylpropan-2-ol] + CCCCCCCC[n+]1ccn(C)c1.F[P-](F)(F)(F)(F)F
x2 = 0
Settings	refractive index
309.16 K	1.3775
312.05 K	1.3759
315.18 K	1.3742
318.15 K	1.3725
321.11 K	1.3708
324.42 K	1.3689

CCCO [propan-1-ol] + CCCCCCCC[n+]1ccn(C)c1.F[P-](F)(F)(F)(F)F
x2 = 0
Settings	refractive index
298.19 K	1.3818
300.2 K	1.381
302.19 K	1.3802
304.2 K	1.3793
306.22 K	1.3785
308.24 K	1.3777
310.25 K	1.3769
312.24 K	1.376
